From publication PMC11050087, “Polyphenols from Maackia amurensis Heartwood Protect Neuronal Cells from Oxidative Stress and Prevent Herpetic Infection” (International Journal of Molecular Sciences, 2024)

Tested on: PQ-treated Neuro-2a cells
Experiment: ROS analysis in PQ-treated cells (H2DCF-DA)
Assay type: cell-based, murine
Conditions: PQ 1 mM
Experimental: We previously studied the effect of stilbens 9, 10, 11, and 13 on cell viability and ROS level in PQ-treated Neuro-2a cells. Here, we evaluated the neuroprotective potential against the toxic effect of PQ of stilbene 1, flavonoid 6 and isoflavonoids 2–5, 7, 12 (Figure 7a–d).
Figure 7 The effect of polyphenolic compounds isolated from M. amurensis heartwood on cell viability (a–c) and ROS levels (d) in Neuro-2a cells treated with PQ (1 mM). Polyphenolic compounds isolated from M. amurensis heartwood were used at concentrations 10, 1, 0.1 μM. The data are presented as means ± SEM of three independent replicates. (*), (**), and (***) indicate, respectively, p < 0.05, p < 0.005, and p < 0.001 versus PQ-treated cells.
After 24 h of adhesion, Neuro-2a cells (5 × 10^4 cells/mL) were incubated with polyphenolic compounds at concentrations of 0.1, 1, and 10 µM for 1 h. Then, 120 µM of 6-OHDA or 1 mM of PQ were added to each well, and cells were incubated for 1 h. To study the ROS formation, 20 µL of 2,7-dichlorodihydrofluorescein diacetate solution (H2DCF-DA, Sigma-Aldrich, St. Louis, MO, USA) were added to each well, so that the final concentration was 10 µM. Then, the microplate was incubated for 30 min at 37 °C.

SMILES: O=C1C[C@@H](c2ccc(O)cc2)Oc2cc(O)ccc21 [Compound 6, liquiritigenin]
- effect on ROS level in PQ-treated Neuro-2a cells (in words): effectively reduced the ROS level
